Assay results published in US9353116B2, “Methods and compositions for kinase inhibition” (THE REGENTS OF THE UNIVERSITY OF CALIFORNIA, priority 2010, dated 2016).
pIC50: −log10 of the molar value. Read-outs that look alike come from different tables or passages of the source.

Experiments:
Type in all cases: biochemical
T338C c-Src [1] = target: T1, T338C c-Src (Gallus gallus (Chicken), UniProt P00523, T338C); assay: In vitro kinase assay, T338C c-Src (c-Src-ES1); details: for fold increase in inhibition of T338C relative to WT c-Src: T338C vs WT c-Src; for fold drop in potency against T338C c-Src relative to compound 9: relative to isopropyl vinylsulfonamide 9
Protocol: In vitro kinase assays for c-Src variants were performed in 50 mM Tris (pH 8.0), 10 mM MgCl2 and 1 mg/mL BSA. When obtaining kinetic parameters (kcat, Km) kinase and peptide substrate (IYGEFKKK) (SEQ ID NO:51) concentrations were 2 nM and 500 μM, respectively, while ATP concentrations ranged from 2000-0.655 μM. Addition of nonradioactive ATP supplemented with ^32P ATP (3,000 Ci/mmol, NEN) was used to initiate kinase reactions. Time points were selected such that product formation never exceeded 10%. Reactions were quenched by spotting 3 μL quantities onto phosphocellulose sheets (P81, Whatman). Afterwards, the sheets were washed 3×5 minutes in 0.5% phosphoric acid and dried. Radioactivity was measured by phosphorimaging and recorded on a Typhoon fluorescence imager (Molecular Dynamics). Data were plotted as rate (min^−1) versus ATP concentration and fitted to the Michaelis-Menten equation, v=[(kcat)[S]]/(Km+[S]), using Kaleidagraph software (Synergy) to extract kinetic parameters. When obtaining IC50 values for the inhibitors, 2% (v/v) DMSO was included in kinase reactions. In these cases ATP, peptide, and enzyme concentrations were 15 nM, 100 μM and 5 nM, respectively, while inhibitor concentrations ranged from 10,000-0.610 nM. […] The data was fitted to a sigmoidal dose-response curve using Prism 4.0c (GraphPad Software) to obtain IC50 values.

WT c-Src [2] = target: T2, WT c-Src (Gallus gallus (Chicken), UniProt P00523); assay: In vitro kinase assay, WT c-Src
Protocol: (§1) In vitro kinase assays for c-Src variants were performed in 50 mM Tris (pH 8.0), 10 mM MgCl2 and 1 mg/mL BSA. When obtaining kinetic parameters (kcat, Km) kinase and peptide substrate (IYGEFKKK) (SEQ ID NO:51) concentrations were 2 nM and 500 μM, respectively, while ATP concentrations ranged from 2000-0.655 μM. Addition of nonradioactive ATP supplemented with ^32P ATP (3,000 Ci/mmol, NEN) was used to initiate kinase reactions. Time points were selected such that product formation never exceeded 10%. Reactions were quenched by spotting 3 μL quantities onto phosphocellulose sheets (P81, Whatman). Afterwards, the sheets were washed 3×5 minutes in 0.5% phosphoric acid and dried. Radioactivity was measured by phosphorimaging and recorded on a Typhoon fluorescence imager (Molecular Dynamics). Data were plotted as rate (min^−1) versus ATP concentration and fitted to the Michaelis-Menten equation, v=[(kcat)[S]]/(Km+[S]), using Kaleidagraph software (Synergy) to extract kinetic parameters. When obtaining IC50 values for the inhibitors, 2% (v/v) DMSO was included in kinase reactions. In these cases ATP, peptide, and enzyme concentrations were 15 nM, 100 μM and 5 nM, respectively, while inhibitor concentrations ranged from 10,000-0.610 nM. In all cases, a ten-minute preincubation step between the kinase and the inhibitor preceded addition of ATP and a fifteen-minute reaction. The data was fitted to a sigmoidal dose-response curve using Prism 4.0c (GraphPad Software) to obtain IC50 values.

c-Src-ES2 (T338C/V323A) = c-Src-ES2 (T338C/V323A) (Gallus gallus (Chicken), UniProt P00523, T338C/V323A); assay: In vitro kinase assay, c-Src-ES2
Protocol: as §1

c-Src-ES3 (T338C/V323S) = c-Src-ES3 (T338C/V323S) (Gallus gallus (Chicken), UniProt P00523, T338C/V323S); assay: In vitro kinase assay, c-Src-ES3; details: ES3 = T338C/V323S; read-out: c-Src variant IC50 (nM) ES3
Protocol: as §1

307 kinases = assay: Kinome-wide profiling (SelectScreen Kinase Profiling Service); details: compounds at 1 μM, ATP at Km,app
Protocol: The percent inhibition results in FIG. were generated with biochemical enzymatic kinase assays using the SelectScreen® Kinase Profiling Service (Life Technologies Corporation, Madison, Wis.). Compounds were assayed at 1 μM at an ATP concentration equal to the ATP Km,app for the assay following the detailed procedures described in the SelectScreen® Customer Protocol and Assay Conditions documents located at www.invitrogen.com/kinaseprofiling.
Compounds that were profiled include, but are not limited to, 3, 4, 9, 13, and 20. […] The exocyclic amine mimics N6 of ATP and plays an important role in a hydrogen bonding interaction with the hinge region of kinases.

WT c-Src [3] = target: T2, WT c-Src; assay: Gel filtration and kinetic assay, WT c-Src; details: 23 μM inhibitor, 25 minutes, then PD10 desalting
Protocol: (§2) Inhibitors (final concentration 23 μM) were incubated with c-Src variants (final concentration 11.5 μM) in kinase reaction buffer (50 mM Tris pH 8, 100 mM NaCl, 1 mM DTT, 5% glycerol, 5% DMSO) for 25 minutes at room temperature. The solutions (2.6 mL total) were then passed over PD10 desalting columns (GE Healthcare) using the kinase reaction buffer for elution. Src concentrations were calculated using the extinction coefficient for c-Src (51.140 mM^−1cm^−1) {Seeliger, 2005 #100}. Kinase assays were performed as described in the experimental section at a final enzyme concentration of 10 nM.

T338C c-Src [4] = target: T1, T338C c-Src; assay: Gel filtration and kinetic assay, T338C c-Src; details: 23 μM inhibitor, 25 minutes, then PD10 desalting
Protocol: as §2

[5] = inhibitor preincubated with Src ten minutes prior to addition of ATP, read-out: T338C c-Src IC50
[6] = inhibitor preincubated with Src ten minutes prior to addition of ATP, read-out: WT c-Src IC50
[7] = 10 min preincubation with inhibitor prior to addition of ATP, read-out: IC50 against T338C c-Src
[8] = 10 min preincubation with inhibitor prior to addition of ATP, read-out: IC50 against WT c-Src

| Structure (SMILES) | pIC50 (T338C c-Src [1]; [5]) | pIC50 (WT c-Src [2]; [6]) | also measured |
| --- | --- | --- | --- |
| C=CC(=O)Nc1cccc(-c2nn(C(C)C)c3ncnc(N)c23)c1 [Compound 1, N-(3-(4-amino-1-isopropyl-1H-pyrazolo[3,4-d]pyrimidin-3-yl)phenyl)acrylamide] | 6.38 | 5.63 | – |
| C=CC(=O)Nc1cccc(-c2nn(C(C)C)c3ncncc23)c1 [Compound 2, N-(3-(1-isopropyl-1H-pyrazolo[3,4-d]pyrimidin-3-yl)phenyl)acrylamide] | < 5.30 | < 5.30 | pIC50 (T338C c-Src [1]; [7]): ≤ 5.30; pIC50 (WT c-Src [2]; [8]): ≤ 5.30 |
| C=CS(=O)(=O)Nc1cccc(-c2nn(C(C)C)c3ncnc(N)c23)c1 [Compound 3, N-(3-(4-amino-1-isopropyl-1H-pyrazolo[3,4-d]pyrimidin-3-yl)phenyl)ethenesulfonamide] | 6.95 | 6.00 | IC50 (c-Src-ES2 (T338C/V323A); ES2 = T338C/V323A, read-out: c-Src variant IC50 (nM) ES2): 63 nM; change of inhibitor potency upon second-site Val323 mutations (c-Src-ES2 (T338C/V323A); c-Src-ES2 and c-Src-ES3 relative to c-Src-ES1): not modulated appreciably; IC50 (T338C c-Src [1]; ES1 = T338C, read-out: c-Src variant IC50 (nM) ES1): 111 nM; fold increase in inhibition of T338C relative to WT c-Src (T338C c-Src [1]): > 9 fold; IC50 (c-Src-ES3 (T338C/V323S)): 131 nM |
| C=CS(=O)(=O)Nc1cccc(-c2nn(C(C)C)c3ncncc23)c1 [Compound 4, N-(3-(1-isopropyl-1H-pyrazolo[3,4-d]pyrimidin-3-yl)phenyl)ethenesulfonamide] | < 5.30 | < 5.30 | pIC50 (T338C c-Src [1]; [7]): ≤ 5.30; off-target profile in kinome-wide screen (307 kinases): relatively few off-target effects; pIC50 (WT c-Src [2]; [8]): ≤ 5.30 |
| C=CS(=O)(=O)Nc1ccc(-c2nn(C(C)C)c3ncnc(N)c23)cc1 [Compound 5, N-(4-(4-amino-1-isopropyl-1H-pyrazolo[3,4-d]pyrimidin-3-yl)phenyl)ethenesulfonamide] | 6.84 | 6.05 | fold increase in inhibition of T338C relative to WT c-Src (T338C c-Src [1]): ~6 fold |
| CC(C)n1nc(-c2cccc(NC(=O)CCl)c2)c2c(N)ncnc21 [Compound 6, N-(3-(4-amino-1-isopropyl-1H-pyrazolo[3,4-d]pyrimidin-3-yl)phenyl)-2-chloroacetamide] | 6.09 | < 5.30 | – |
| C=CC(=O)Nc1cccc(Cc2nn(C(C)C)c3ncnc(N)c23)c1 [Compound 7, N-(3-((4-amino-1-isopropyl-1H-pyrazolo[3,4-d]pyrimidin-3-yl)methyl)phenyl)acrylamide] | 5.56 | < 5.30 | – |
| C=CC(=O)Nc1ccc(Cc2nn(C(C)C)c3ncnc(N)c23)cc1 [Compound 8, N-(4-((4-amino-1-isopropyl-1H-pyrazolo[3,4-d]pyrimidin-3-yl)methyl)phenyl)acrylamide] | < 5.30 | < 5.30 | – |
| C=CS(=O)(=O)Nc1ccc(Cc2nn(C(C)C)c3ncnc(N)c23)cc1 [Compound 10, N-(4-((4-amino-1-isopropyl-1H-pyrazolo[3,4-d]pyrimidin-3-yl)methyl)phenyl)ethenesulfonamide] | 5.75 | 5.51 | – |
| CCS(=O)(=O)Nc1cccc(Cc2nn(C(C)C)c3ncnc(N)c23)c1 [Compound 11, N-(3-((4-amino-1-isopropyl-1H-pyrazolo[3,4-d]pyrimidin-3-yl)methyl)phenyl)ethanesulfonamide] | 5.46 | < 5.30 | fold drop in potency against T338C c-Src relative to compound 9 (T338C c-Src [1]): 23 fold |
| CC(C)n1nc(Cc2cccc(NC(=O)CCl)c2)c2c(N)ncnc21 [Compound 12, N-(3-((4-amino-1-isopropyl-1H-pyrazolo[3,4-d]pyrimidin-3-yl)methyl)phenyl)-2-chloroacetamide] | < 5.30 | < 5.30 | – |
| C=CS(=O)(=O)Nc1cccc(Cc2nn(C)c3ncnc(N)c23)c1 [Compound 15, N-(3-((4-amino-1-methyl-1H-pyrazolo[3,4-d]pyrimidin-3-yl)methyl)phenyl)ethenesulfonamide] | 5.50 | < 5.30 | fold drop in potency against T338C c-Src relative to compound 9 (T338C c-Src [1]): 21 fold |
| C=CS(=O)(=O)Nc1cccc(Cc2nn(C(C)(C)C)c3ncnc(N)c23)c1 [Compound 16, N-(3-((4-amino-1-tert-butyl-1H-pyrazolo[3,4-d]pyrimidin-3-yl)methyl)phenyl)ethenesulfonamide] | 6.21 | < 5.30 | fold drop in potency against T338C c-Src relative to compound 9 (T338C c-Src [1]): 4 fold |
| C=CS(=O)(=O)Nc1cccc(Cc2nn(C3CCCC3)c3ncnc(N)c23)c1 [Compound 17, N-(3-((4-amino-1-cyclopentyl-1H-pyrazolo[3,4-d]pyrimidin-3-yl)methyl)phenyl)ethenesulfonamide] | 6.71 | < 5.30 | – |
| C=CC(=O)Nc1cccc(Nc2ncnc3cc(OC)c(OC)cc23)c1 [Compound 18, N-(3-(6,7-dimethoxyquinazolin-4-ylamino)phenyl)acrylamide] | 5.78 | < 5.30 | – |
| Cc1ccc(-c2nn(C(C)(C)C)c3ncnc(N)c23)cc1 [PP1, reference compound] | – | – | inhibitory activity after gel filtration, WT c-Src (WT c-Src [3]): abrogated; inhibitory activity after gel filtration, T338C c-Src (T338C c-Src [4]): abrogated |
